Data taken from ChEMBL document CHEMBL3992552, “Mechanisms of action and structure-activity relationships of cytotoxic flavokawain derivatives” (Bioorg Med Chem, 2017).
Calls of active or inactive are those of the source. The rule behind the calls is not given here.

How the values were obtained:
NCI-H727 [1] = assay: Cell cycle arrest in human NCI-H727 cells harboring p53 mutant assessed as mitotic index at 25 uM measured after 48 hrs by Hoechst staining based fluorescence assay (reference value: 1.1); format: functional
MDA-MB-231 [2] = assay: Cell cycle arrest in human MDA-MB-231 cells harboring p53 mutant assessed as accumulation at S phase at 10 uM measured after 48 hrs by Hoechst/BrdU staining based fluorescence assay (reference value: 42.2%); format: functional
HaCaT [3] = assay: Cell cycle arrest in human HaCaT cells assessed as accumulation at G1/S phase by Hoechst staining based fluorescence assay; format: functional
PC-3 [4] = assay: Cell cycle arrest in human PC3 cells assessed as accumulation at G2/M phase by Hoechst staining based fluorescence assay; format: functional
Huh-7 [5] = assay: Cytotoxicity against human HuH7 cells assessed as cell viability after 48 hrs by Hoechst 33342 staining based assay; format: functional; settings: Huh-7, 48 h
HCT-116 [6] = assay: Cell cycle arrest in human HCT116 cells assessed as accumulation at G1/S phase by Hoechst staining based fluorescence assay; format: functional
PC-3 [7] = assay: Cell cycle arrest in human PC3 cells harboring p53 mutant assessed as accumulation at S phase at 25 uM measured after 48 hrs by Hoechst/BrdU staining based fluorescence assay (reference value: 40.8%); format: functional
PC-3 [8] = assay: Cell cycle arrest in human PC3 cells harboring p53 mutant assessed as accumulation at S phase at 10 uM measured after 48 hrs by Hoechst/BrdU staining based fluorescence assay (reference value: 40.8%); format: functional
HaCaT [9] = assay: Cell cycle arrest in human HaCaT cells harboring […] p53 assessed as accumulation at S phase at 10 uM measured after 48 hrs by Hoechst/BrdU staining based fluorescence assay (reference value: 52.3%); format: functional
HCT-116 [10] = assay: Cell cycle arrest in human HCT116 cells harboring wild-type p53 assessed as accumulation at M phase at 50 uM measured after 48 hrs by Hoechst staining based fluorescence assay (reference value: 2.3 to […]); format: functional
MDA-MB-231 [11] = assay: Cell cycle arrest in human MDA-MB-231 cells harboring p53 mutant assessed as accumulation at S phase at 25 uM measured after 48 hrs by Hoechst/BrdU staining based fluorescence assay (reference value: 42.2%); format: functional
MDA-MB-231 [12] = assay: Cell cycle arrest in human MDA-MB-231 cells assessed as accumulation at G1/S phase by Hoechst staining based fluorescence assay; format: functional
HCT-116 [13] = assay: Cell cycle arrest in human HCT116 cells harboring wild-type p53 assessed as accumulation at S phase at 25 uM measured after 48 hrs by Hoechst/BrdU staining based fluorescence assay (reference value: 68.4%); format: functional
NCI-H727 [14] = assay: Cell cycle arrest in human NCI-H727 cells harboring p53 mutant assessed as mitotic index at 10 uM measured after 48 hrs by Hoechst staining based fluorescence assay (reference value: 1.1); format: functional
HCT-116 [15] = assay: Cell cycle arrest in human HCT116 cells harboring wild-type p53 assessed as accumulation at S phase at 10 uM measured after 48 hrs by Hoechst/BrdU staining based fluorescence assay (reference value: 68.4%); format: functional
PC-3 [16] = assay: Cytotoxicity against human PC3 cells assessed as cell viability after 48 hrs by Hoechst 33342 staining based assay; format: functional; settings: PC-3, 48 h
Huh-7 [17] = assay: Cell cycle arrest in human HuH7 cells assessed as accumulation at G1/S phase by Hoechst staining based fluorescence assay; format: functional
NCI-H727 [18] = assay: Cell cycle arrest in human NCI-H727 cells harboring p53 mutant assessed as accumulation at S phase at 10 uM measured after 48 hrs by Hoechst/BrdU staining based fluorescence assay (reference value: 40.3%); format: functional
Huh-7 [19] = assay: Cell cycle arrest in human HuH7 cells assessed as accumulation at S phase at 25 uM measured after 48 hrs by Hoechst/BrdU staining based fluorescence assay (reference value: 44%); format: functional
HCT-116 [20] = assay: Cell cycle arrest in human HCT116 cells harboring wild-type p53 assessed as accumulation at S phase at 50 uM measured after 48 hrs by Hoechst/BrdU staining based fluorescence assay (reference value: 68%); format: functional
MDA-MB-231 [21] = assay: Cytotoxicity against human MDA-MB-231 cells assessed as cell viability after 48 hrs by Hoechst 33342 staining based assay; format: functional; settings: MDA-MB-231, 48 h
Fibroblast = assay: Cytotoxicity against human fibroblasts assessed as cell viability after 48 hrs by Hoechst 33342 staining based assay
Huh-7 [22] = assay: Cell cycle arrest in human HuH7 cells assessed as accumulation at S phase at 10 uM measured after 48 hrs by Hoechst/BrdU staining based fluorescence assay (reference value: 44%); format: functional
MCF7 = assay: Cytotoxicity against human MCF7 assessed as cell viability after 48 hrs by Hoechst 33342 staining based assay; format: functional; settings: MCF7, 48 h
HaCaT [23] = assay: Cell cycle arrest in human HaCaT cells harboring […] p53 assessed as accumulation at S phase at 25 uM measured after 48 hrs by Hoechst/BrdU staining based fluorescence assay (reference value: 52.3%); format: functional
RL = assay: Cytotoxicity against human RL assessed as cell viability after 48 hrs by Hoechst 33342 staining based assay; format: functional
NCI-H727 [24] = assay: Cell cycle arrest in human NCI-H727 cells harboring p53 mutant assessed as accumulation at S phase at 25 uM measured after 48 hrs by Hoechst/BrdU staining based fluorescence assay (reference value: 40.3%); format: functional
HCT-116 [25] = assay: Cell cycle arrest in human HCT116 cells harboring wild-type p53 assessed as accumulation at M phase at 25 uM measured after 48 hrs by Hoechst staining based fluorescence assay (reference value: 2.3 to […]); format: functional
NCI-H727 [26] = assay: Cytotoxicity against human NCI-H727 cells assessed as cell viability after 48 hrs by Hoechst 33342 staining based assay; format: functional; settings: NCI-H727, 48 h
HCT-116 [27] = assay: Cell cycle arrest in human HCT116 cells harboring wild-type p53 assessed as accumulation at S phase at 25 uM measured after 48 hrs by Hoechst/BrdU staining based fluorescence assay (reference value: 68%); format: functional
HaCaT [28] = assay: Cytotoxicity against human HaCaT cells assessed as cell viability after 48 hrs by Hoechst 33342 staining based assay; format: functional
MDA-MB-231 [29] = assay: Cell cycle arrest in human MDA-MB-231 cells harboring p53 mutant assessed as mitotic index at 10 uM measured after 48 hrs by Hoechst staining based fluorescence assay (reference value: 2.1); format: functional
Caco-2 [30] = assay: Cell cycle arrest in human Caco2 cells assessed as accumulation at S phase at 10 uM measured after 48 hrs by Hoechst/BrdU staining based fluorescence assay (reference value: […]); format: functional
HaCaT [31] = assay: Cell cycle arrest in human HaCaT cells harboring […] p53 assessed as mitotic index at 25 uM measured after 48 hrs by Hoechst staining based fluorescence assay (reference value: 2.6); format: functional
[32] = Selectivity index, ratio of IC50 for human fibroblasts to IC50 for human HaCaT cells
[33] = Selectivity index, ratio of IC50 for human fibroblasts to IC50 for human MCF7 cells
Caco-2 [34] = assay: Cell cycle arrest in human Caco2 cells assessed as accumulation at S phase at 25 uM measured after 48 hrs by Hoechst/BrdU staining based fluorescence assay (reference value: […]); format: functional
Caco-2 [35] = assay: Cell cycle arrest in human Caco2 cells assessed as mitotic index at 10 uM measured after 48 hrs by Hoechst staining based fluorescence assay (reference value: 3.6); format: functional
HCT-116 [36] = assay: Cell cycle arrest in human HCT116 cells assessed as accumulation at G2/M phase by Hoechst staining based fluorescence assay; format: functional
MDA-MB-231 [37] = assay: Cell cycle arrest in human MDA-MB-231 cells harboring p53 mutant assessed as mitotic index at 25 uM measured after 48 hrs by Hoechst staining based fluorescence assay (reference value: 2.1); format: functional
Caco-2 [38] = assay: Cytotoxicity against human Caco2 cells assessed as cell viability after 48 hrs by Hoechst 33342 staining based assay; format: functional; settings: Caco-2, 48 h
Huh-7 [39] = assay: Cell cycle arrest in human HuH7 cells assessed as mitotic index at 10 uM measured after 48 hrs by Hoechst staining based fluorescence assay (reference value: 2.2); format: functional
PC-3 [40] = assay: Cell cycle arrest in human PC3 cells assessed as accumulation at G1/S phase by Hoechst staining based fluorescence assay; format: functional
HCT-116 [41] = assay: Cell cycle arrest in human HCT116 cells harboring wild-type p53 assessed as mitotic index at 25 uM measured after 48 hrs by Hoechst staining based fluorescence assay (reference value: 2.3); format: functional
[42] = Selectivity index, ratio of IC50 for human fibroblasts to IC50 for human RL cells
[43] = Selectivity index, ratio of IC50 for human fibroblasts to IC50 for human PC3 cells
HaCaT [44] = assay: Cell cycle arrest in human HaCaT cells harboring […] p53 assessed as mitotic index at 10 uM measured after 48 hrs by Hoechst staining based fluorescence assay (reference value: 2.6); format: functional
Caco-2 [45] = assay: Cell cycle arrest in human Caco2 cells assessed as mitotic index at 25 uM measured after 48 hrs by Hoechst staining based fluorescence assay (reference value: 3.6); format: functional
Huh-7 [46] = assay: Cell cycle arrest in human HuH7 cells assessed as mitotic index at 25 uM measured after 48 hrs by Hoechst staining based fluorescence assay (reference value: 2.2); format: functional
[47] = Selectivity index, ratio of IC50 for human fibroblasts to IC50 for human Caco2 cells
[48] = Selectivity index, ratio of IC50 for human fibroblasts to IC50 for human HCT116 cells
HCT-116 [49] = assay: Cell cycle arrest in human HCT116 cells harboring wild-type p53 assessed as mitotic index at 10 uM measured after 48 hrs by Hoechst staining based fluorescence assay (reference value: 2.3); format: functional
PC-3 [50] = assay: Cell cycle arrest in human PC3 cells harboring p53 mutant assessed as mitotic index at 10 uM measured after 48 hrs by Hoechst staining based fluorescence assay (reference value: 2.5); format: functional
HCT-116 [51] = assay: Cytotoxicity against human HCT116 cells assessed as cell viability after 48 hrs by Hoechst 33342 staining based assay; format: functional; settings: HCT-116, 48 h
PC-3 [52] = assay: Cell cycle arrest in human PC3 cells harboring p53 mutant assessed as mitotic index at 25 uM measured after 48 hrs by Hoechst staining based fluorescence assay (reference value: 2.5); format: functional

Compound: CC[C@H](CO)Nc1nc(NCc2ccccc2)c2ncn(C(C)C)c2n1 [SELICICLIB]
- Activity (NCI-H727 [1]): inactive
- Activity (MDA-MB-231 [2]): 27%
- Activity (HaCaT [3]): Active
- Activity (PC-3 [4]): Active
- IC50 (Huh-7 [5]): 15.4 µM
- Activity (HCT-116 [6]): Active
- Activity (PC-3 [7]): 38%
- Activity (PC-3 [8]): 17%
- Activity (HaCaT [9]): 26%
- Activity (HCT-116 [10]): 0.6%
- Activity (MDA-MB-231 [11]): 25%
- Activity (MDA-MB-231 [12]): Active
- Activity (HCT-116 [13]): 17%
- Activity (NCI-H727 [14]): inactive
- Activity (HCT-116 [15]): 25%
- IC50 (PC-3 [16]): 16.5 µM
- Activity (Huh-7 [17]): Active
- Activity (NCI-H727 [18]): inactive
- Activity (Huh-7 [19]): 9%
- Activity (HCT-116 [20]): 17%
- IC50 (MDA-MB-231 [21]): 16.8 µM
- IC50 (Fibroblast): > 20 µM
- Activity (Huh-7 [22]): 16%
- IC50 (MCF7): 10.2 µM
- Activity (HaCaT [23]): 3%
- IC50 (RL): 0.9 µM
- Activity (NCI-H727 [24]): inactive
- Activity (HCT-116 [25]): 1.2%
- IC50 (NCI-H727 [26]): > 20 µM
- Activity (HCT-116 [27]): 25%
- IC50 (HaCaT [28]): 16.7 µM

Compound: Oc1cccc(-c2nc(N3CCOCC3)c3oc4ncccc4c3n2)c1 [PI-103]
- Activity (NCI-H727 [1]): inactive
- Activity (MDA-MB-231 [29]): inactive
- Activity (Caco-2 [30]): 28%
- Activity (MDA-MB-231 [2]): inactive
- Activity (HaCaT [3]): Active
- Activity_index (HaCaT [31]): 0.5
- Ratio IC50 [32]: >7.1
- IC50 (Huh-7 [5]): > 20 µM
- Ratio IC50 [33]: >1.9
- Activity (Caco-2 [34]): 20%
- Activity_index (Caco-2 [35]): 1.4
- Activity (PC-3 [7]): 1.2%
- Activity (HCT-116 [36]): Active
- Activity (MDA-MB-231 [37]): inactive
- Activity (PC-3 [8]): 6%
- Activity (HaCaT [9]): 20%
- Activity (MDA-MB-231 [11]): inactive
- IC50 (Caco-2 [38]): 2 µM
- Activity (HCT-116 [13]): 63%
- Activity (NCI-H727 [14]): inactive
- Activity (Huh-7 [39]): inactive
- Activity (HCT-116 [15]): 63%
- IC50 (PC-3 [16]): 7.6 µM
- Activity (NCI-H727 [18]): inactive
- Activity (Huh-7 [19]): inactive
- Activity (PC-3 [40]): Active
- IC50 (MDA-MB-231 [21]): > 20 µM
- Activity_index (HCT-116 [41]): 1.8
- Ratio IC50 [42]: >8.6
- Ratio IC50 [43]: >3.3
- IC50 (Fibroblast): > 20 µM
- Activity (Huh-7 [22]): inactive
- Activity_index (HaCaT [44]): 0.9
- Activity_index (Caco-2 [45]): 0.9
- Activity (Huh-7 [46]): inactive
- IC50 (MCF7): 13.3 µM
- Ratio IC50 [47]: >12.5
- Ratio IC50 [48]: >6.4
- Activity (HaCaT [23]): 12%
- IC50 (RL): 2.9 µM
- Activity_index (HCT-116 [49]): 1.9
- Activity (NCI-H727 [24]): inactive
- Activity_index (PC-3 [50]): 0.4
- IC50 (NCI-H727 [26]): > 20 µM
- IC50 (HCT-116 [51]): 3.9 µM
- IC50 (HaCaT [28]): 3.5 µM
- Activity_index (PC-3 [52]): 0.1
